The test system of series [1] is P. falciparum 3D7. Nature of the series: 3-day SYBR Green I growth inhibition assay (GIA), strain 3D7. The format is cell-based, Plasmodium falciparum. Conditions: Plasmodium falciparum, 3D7, 72 h, read-out: Antiplasmodial activity EC50, 3D7. As for the experimental part:
(§1) A 3-day SYBR Green I inhibition EC50 assay was performed as described previously. Briefly, highly synchronized ring-stage parasites by 5% sorbitol (1% parasitemia and 2% hematocrit) were incubated in a 96-well plate with compounds in a total volume of 200 μL. […] The parasites were cultured for 72 h before SYBR Green I staining as described above. The EC50 was calculated by GraphPad Prism. DHA was used as a positive control, and the final concentration of DMSO was 1%.

Series [2] can be described thus: In vitro cytotoxicity analysis (CellTiter-Glo), 293T. Particulars: human. As for the experimental part:
(§2) In all, 1% DMSO was used as a negative control. The inhibition of each drug was normalized to that of the DMSO control. EC50 was calculated by GraphPad Prism. Three independent assays with two technical replicates each time were conducted in this experiment.
In general terms: Cellular ATP, detected with luciferase, serves as a proxy for viable cell number.

Series [3] has as its system 293T cells. The series is described as above. As for the experimental part: as §2
Series [4] can be described thus: In vitro cytotoxicity analysis (CellTiter-Glo), HepG2. Conditions: human. The procedure: as §2
The subject of series [5] is HepG2 cells. The description is as above. Particulars: for Selectivity index (range over HepG2 and 293T): HepG2 and 293T vs 3D7. As for the experimental part:
as §2

Series [6] concerns P. falciparum Dd2. Nature of the series: 3-day SYBR Green I GIA, multidrug-resistant strain Dd2. Conditions: Plasmodium falciparum, 72 h; 3-day SYBR Green I GIA, multidrug-resistant strain Dd2; read-out: Antiplasmodial activity EC50, Dd2. The format is cell-based, Plasmodium falciparum. As for the experimental part:
as §1

[7] abbreviates: 3-day SYBR Green I GIA, drug-sensitive strain 3D7.
[8] abbreviates: 293T cells, Cytotoxicity EC50, 293T, 72 h, CellTiter-Glo.

Like-named read-outs stand apart in the source and are kept apart here. Non-standard residues stand in square brackets, D forms with d. Residues, ends and D or L forms follow the SMILES beside them. ξ: configuration not given here. Aoe(9ξ) = N[C@@H](CCCCCC(=O)C1CO1)C(=O)O; dPip = O=C(O)[C@H]1CCCCN1

19 compounds from article PMC7733455, “A novel multistage antiplasmodial inhibitor targeting Plasmodium falciparum histone deacetylase 1” (Cell Discovery, 2020) can be followed below.

What is called EC50 is the concentration needed to bring the measured effect to its halfway point. In the case of `COc1ccc(-c2nc(N3CCOCC3)c3sc(CN(C)c4ncc(C(=O)NO)cn4)cc3n2)cn1` [Fimepinostat, reference compound], the EC50 in series [1] (setting [7]) is 63 nM. The values for the EC50 at 72 h in series [2] (setting [8]) and in series [4] (HepG2 cells) were 69 nM and 70 nM, respectively. In series [3], the “Selectivity index for 293T (EC50 293T/EC50 3D7)” value (from here on “Selectivity index for 293T”) was 1. Also, the “Selectivity index for HepG2 (EC50 HepG2/EC50 3D7)” value (“Selectivity index for HepG2” for short) in series [5] was 1.
For the compound `Cl.Cn1cc(CN2CC3CN(c4ncc(C(=O)NO)cn4)CC3C2)c2ccccc21` (stereo not drawn) [JX21002], the results for the EC50 in series [1] (setting [7]) and in series [6] were 4.4 ± 0.2 nM and 7 ± 0.2 nM, respectively. Also, the EC50 at 72 h turned out to be 307 ± 4 nM in series [2] (setting [8]) and 128 ± 2 nM in series [4] (HepG2 cells). Moreover, the “Selectivity index for 293T” value in series [3] is on record as 70. In series [5], the “Selectivity index for HepG2” value came to 29. The “Selectivity index (range over HepG2 and 293T)” value in series [5] is on record as 24–70.
Regarding `CN(c1ncc(C(=O)NO)cn1)C1CCN(Cc2cn(C)c3ccccc23)CC1.Cl` [JX21006], the figures for the EC50 in series [1] (setting [7]) and in series [6] were 26.5 ± 1.2 nM and 32 ± 2.5 nM, respectively. For the same compound, the EC50 at 72 h in series [2] (setting [8]) is 118 ± 24 nM; in series [4] (HepG2 cells), 37 ± 10 nM. Also, the “Selectivity index for 293T” value in series [3] came to 4. Further, the “Selectivity index for HepG2” value in series [5] stood at 1.
Consider `Cn1cc(CN2CCC3(CCN(c4ncc(C(=O)NO)cn4)C3)C2)c2ccccc21` (stereo not drawn) [JX21011], for which the EC50 in series [1] (setting [7]) came out at 3 ± 0.7 nM; in series [6], 3.2 ± 0.1 nM. The EC50 at 72 h in series [2] (setting [8]) amounted to 72 ± 10 nM; in series [4] (HepG2 cells) it was 113 ± 1 nM. Further, the “Selectivity index for 293T” value in series [3] came to 24. Also, in series [5], the “Selectivity index for HepG2” value was 38. The “Selectivity index (range over HepG2 and 293T)” value in series [5] is listed as 24–70.
As for `Cl.Cn1cc(CN2CC3(CCN(c4ncc(C(=O)NO)cn4)CC3)C2)c2ccccc21` [JX21014], the values for the EC50 in series [1] (setting [7]) and in series [6] were 16.9 ± 0.8 nM and 10.7 ± 0.2 nM, respectively. Further, the values for the EC50 at 72 h in series [2] (setting [8]) and in series [4] (HepG2 cells) were 1130 ± 26 nM and 348 ± 24 nM, respectively. For the same compound, the “Selectivity index for 293T” value in series [3] is reported as 67. Further, the “Selectivity index for HepG2” value in series [5] is given as 21.
As for `Cl.Cn1cc(CN2CCC3(CCCN(c4ncc(C(=O)NO)cn4)C3)CC2)c2ccccc21` [JX21017], the figures for the EC50 in series [1] (setting [7]) and in series [6] were 28.9 ± 1.2 nM and 32.4 ± 1.8 nM, respectively. The values for the EC50 at 72 h in series [2] (setting [8]) and in series [4] (HepG2 cells) were 4497 ± 33 nM and 2350 ± 93 nM, respectively. The “Selectivity index for 293T” value in series [3] amounted to 156. Moreover, the “Selectivity index for HepG2” value in series [5] stood at 98.
Consider `Cl.O=C(NO)c1cnc(N2CCC3(CCN(Cc4ccc5ccccc5c4)C3)C2)nc1` (stereo not drawn) [JX21101], for which the EC50 in series [1] (setting [7]) turned out to be 3.5 ± 0.2 nM; in series [6], 2.18 ± 0.02 nM. Moreover, the EC50 at 72 h in series [2] (setting [8]) came to 1160 ± 193 nM; in series [4] (HepG2 cells) it was 651 ± 63 nM. The “Selectivity index for 293T” value in series [3] was 331. Moreover, the “Selectivity index for HepG2” value in series [5] is on record as 186.
On to `COc1ccc2c(c1)c(CN1CCC3(CCN(c4ncc(C(=O)NO)cn4)C3)C1)cn2C.Cl` (stereo not drawn) [JX21104], for which the EC50 is 1.6 ± 0.3 nM in series [1] (setting [7]) and 3 ± 0.1 nM in series [6]. Besides, the EC50 at 72 h in series [2] (setting [8]) came to 659 ± 128 nM; in series [4] (HepG2 cells) it was 534 ± 45 nM. Besides, the “Selectivity index for 293T” value in series [3] stood at 217. Moreover, the “Selectivity index for HepG2” value in series [5] was determined as 176.
Consider `Cl.O=C(NO)c1cnc(N2CCC3(CCN(Cc4ccc5c(c4)CCO5)C3)C2)nc1` (stereo not drawn) [JX21109], for which the EC50 in series [1] (setting [7]) is 9.8 ± 0.3 nM; in series [6], 7 ± 0.3 nM. Further, the EC50 at 72 h in series [2] (setting [8]) came out at 2560 ± 113 nM; in series [4] (HepG2 cells) it was 1310 ± 73 nM. For the same compound, the “Selectivity index for 293T” value in series [3] is reported as 260. For the same compound, in series [5], the “Selectivity index for HepG2” value is recorded as 133.
Regarding `Cl.O=C(NO)c1cnc(N2CCC3(CCN(Cc4csc5ccccc45)C3)C2)nc1` (stereo not drawn) [JX21115], the EC50 was 4.8 ± 0.1 nM in series [1] (setting [7]) and 7.2 ± 0.2 nM in series [6]. The EC50 at 72 h came out at 482 ± 42 nM in series [2] (setting [8]) and 864 ± 76 nM in series [4] (HepG2 cells). In addition, the “Selectivity index for 293T” value in series [3] amounted to 100. Further, the “Selectivity index for HepG2” value in series [5] was found to be 179.
As for `Cl.O=C(NO)c1cnc(N2CCC3(CCN(Cc4cc5ccccc5o4)C3)C2)nc1` (stereo not drawn) [JX21117], the results for the EC50 in series [1] (setting [7]) and in series [6] were 6.4 ± 0.3 nM and 7.61 ± 0.05 nM, respectively. The EC50 at 72 h worked out at 1610 ± 334 nM in series [2] (setting [8]) and 1640 ± 25 nM in series [4] (HepG2 cells). Besides, the “Selectivity index for 293T” value in series [3] is 252. Moreover, the “Selectivity index for HepG2” value in series [5] was found to be 255.
Regarding `Cl.O=C(NO)c1cnc(N2CCC3(CCN(Cc4cc5ccccc5s4)C3)C2)nc1` (stereo not drawn) [JX21118], the EC50 turned out to be 5.61 ± 0.04 nM in series [1] (setting [7]) and 6.4 ± 1.3 nM in series [6]. Besides, the EC50 at 72 h in series [2] (setting [8]) amounted to 1640 ± 122 nM; in series [4] (HepG2 cells), 1670 ± 230 nM. For the same compound, in series [3], the “Selectivity index for 293T” value is listed as 292. Moreover, the “Selectivity index for HepG2” value in series [5] came to 298.
For the compound `Cl.Cn1c(CN2CCC3(CCN(c4ncc(C(=O)NO)cn4)C3)C2)cc2ccccc21` (stereo not drawn) [JX21123], the EC50 in series [1] (setting [7]) came out at 6.2 ± 1.3 nM; in series [6], 7.2 ± 0.3 nM. Further, the EC50 at 72 h in series [2] (setting [8]) worked out at 1200 ± 156 nM; in series [4] (HepG2 cells), 1250 ± 62 nM. In addition, in series [3], the “Selectivity index for 293T” value amounted to 193. Further, in series [5], the “Selectivity index for HepG2” value is recorded as 202.
In the case of `Cl.Cn1nc(CN2CCC3(CCN(c4ncc(C(=O)NO)cn4)C3)C2)c2ccccc21` (stereo not drawn) [JX21124], the EC50 in series [1] (setting [7]) amounted to 5.8 ± 0.9 nM; in series [6] it was 4.3 ± 0.5 nM. Also, the EC50 at 72 h in series [2] (setting [8]) was found to be 1330 ± 29 nM; in series [4] (HepG2 cells) it was 1130 ± 168 nM. In series [3], the “Selectivity index for 293T” value was determined as 229. Moreover, in series [5], the “Selectivity index for HepG2” value stood at 195.
Consider `Cl.Cn1cc(CN2CCC3(CCN(c4ncc(C(=O)NO)cn4)C3)C2)c2ccncc21` (stereo not drawn) [JX21129], for which the figures for the EC50 in series [1] (setting [7]) and in series [6] were 8 ± 0.5 nM and 7.8 ± 1.3 nM, respectively. In addition, the EC50 at 72 h is 1120 ± 98 nM in series [2] (setting [8]) and 1530 ± 69 nM in series [4] (HepG2 cells). Also, the “Selectivity index for 293T” value in series [3] worked out at 141. Besides, in series [5], the “Selectivity index for HepG2” value is 192.
Turning to `Cl.Cn1cc(CN2CCC3(CCN(c4ncc(C(=O)NO)cn4)C3)C2)c2cccnc21` (stereo not drawn) [JX21130], the EC50 in series [1] (setting [7]) was 8.4 ± 0.4 nM; in series [6], 7.5 ± 2 nM. Also, the EC50 at 72 h stood at 4640 ± 375 nM in series [2] (setting [8]) and 1180 ± 84 nM in series [4] (HepG2 cells). Further, the “Selectivity index for 293T” value in series [3] amounted to 552. For the same compound, the “Selectivity index for HepG2” value in series [5] was found to be 140.
For the compound `Cl.O=C(NO)c1cnc(N2CCC3(CCN(Cc4c5ccccc5cc5ccccc45)C3)C2)nc1` (stereo not drawn) [JX21138], the EC50 in series [1] (setting [7]) amounted to 28.8 ± 18.5 nM; in series [6], 21.2 ± 0.9 nM. The EC50 at 72 h in series [2] (setting [8]) is 1990 ± 559 nM; in series [4] (HepG2 cells), 1310 ± 14 nM. The “Selectivity index for 293T” value in series [3] is on record as 69. Further, the “Selectivity index for HepG2” value in series [5] is 45.
Consider `Cl.O=C(NO)c1cnc(N2CCC3(CCN(Cc4ccc5c(c4)OCO5)C3)C2)nc1` (stereo not drawn) [JX21140], for which the EC50 turned out to be 10.5 ± 0.1 nM in series [1] (setting [7]) and 5.4 ± 0.2 nM in series [6]. In addition, the EC50 at 72 h in series [2] (setting [8]) turned out to be 2450 ± 301 nM; in series [4] (HepG2 cells) it was 493 ± 149 nM. In series [3], the “Selectivity index for 293T” value came out at 235. The “Selectivity index for HepG2” value in series [5] was determined as 47.
As for `O=C(CCCCC[C@@H]1NC(=O)[C@H]2CCCCN2C(=O)[C@H](Cc2ccccc2)NC(=O)[C@H](Cc2ccccc2)NC1=O)C1CO1` (stereo partly drawn) [Trapoxin A, reference compound] (cyclo(FF[dPip][Aoe(9ξ)])), the EC50 in series [1] was 82 nM. The EC50 at 72 h in series [2] was 724 nM; in series [4], 6320 nM. For the same compound, the “Selectivity index for 293T” value in series [3] worked out at 9. Further, in series [5], the “Selectivity index for HepG2” value is given as 77.
